We go through one molecule from US10208028B1, “Methods of treating cancer” (Macau University of Science and Technology, priority 2017, dated 2019).

For experiment [1], the system named is A549 cells. In words: Colony formation assay. Type of experiment: cell-based. The settings on record: A549 cells, 0.5, 1, 1.5 μM, 7 days, versus control group. On the procedure:
Cell survival was assessed by colony formation as previously described. A549 cells were seeded to six-well plate (500-1000/well). Then cells were exposed to various doses of compound C620-0696. After 7 days, colonies were fixed with 4% paraformaldehyde for 15 minutes and stained with crystal violet for 10-15 minutes. Finally, the staining solution was slowly washed off with water and the cells were air dried.
To determine the effect of the compound C620-0696 on A549 cell growth behavior, a colony formation assay was performed. A549 cells were treated by different concentrations of compound C620-0696, i.e. 0 (control group), 0.5, 1, 1.5 μM.

Experiment [2] concerns Cyclin D1. Nature of the experiment: Western blot analysis, cyclin D1. Type of experiment: cell-based. As to conditions: H358 cells, 3, 6, 9 μM, 24 hr. The protocol:
(§1) The cell culture dish was placed in the ice and washed the cells with PBS. Then the PBS was removed to ensure that the cells were lysed in cell lysis buffer containing protease and phosphatase inhibitors. Adherent cells were scraped off from the plate and transferred the lysate into a new tube. The tube was maintained at a constant agitation for 15 min in the ice. Then the tubes were centrifuged at 4° C. 12000 g for 5 min. The supernatant was transferred into a new tube and 4× loading buffer was added to the supernatant. Each sample was boiled at 100° C. for 5 min. Equal amounts of protein (50 μg) were loaded into the wells of a SDS-PAGE gel, along with 3 μl markers. The gel was placed in transfer buffer in sandwich and was transferred to a nitrocellulose filter membrane. After transferring for 3 hr in an ice bucket at a constant current of 300 mA, the membranes were blocked in 5% non-fat milk in TBST at room temperature for 1 hr. The membrane was incubated overnight with the primary antibody solution, against the target protein at 4° C. The blot was rinsed 3 times within 5 min with TBST. The secondary antibody solution was incubated for 1 hr at room temperature. […]
(§2) To determine whether the induction of apoptosis in NSCLC cells was contributed by compound C620-0696-mediated growth inhibition, cleaved PARP1 in compound C620-0696 treated H358 cells was detected. […]
On the technique in general: A western blot detects proteins with antibodies after separation by electrophoresis.

Experiment [3] has as its target bromodomain of BPTF (Homo sapiens, UniProt Q12830). Nature of the experiment: Kinetic binding analysis by biolayer interferometry. The protocol: The Octet Red96 system (Forte Bio, Pall) was used to determine the binding between compound C620-0696 and BPTF. BPTF protein was loaded to saturation onto anti-His capture sensors (ForteBio), then was placed for 2 min in wells containing C620-0696 (concentrations: 3.125, 6.25, 12.5, 25, 50, 100, 200 μM). The baseline and dissociation steps were carried out in the kinetics buffer as per the instrument manufacturer's recommendations. Kinetic binding data in all cases were adequately described accurately by a 1:1 binding model.
FIG. 2A is a graph 200 showing the binding affinity of the bromodomain of BPTF with compound C620-0696 by Biolayer interferometry assay (BLI). BLI is a label-free technology for measuring biomolecular interactions. The bromodomain was immobilized on the streptavidin (SA) biosensors, and then mixed with different concentration of compound C620-0696 at 3.125, 6.25, 12.5, 25, 50, 100, 200 μM.

For experiment [4], the system named is c-MYC. Nature of the experiment: Western blot analysis, c-MYC. The settings on record: H358 cells, 3, 6, 9 μM, 24 hr. Type of experiment: cell-based. The protocol:
as §1, §2

For experiment [5], the system named is PARP1. Nature of the experiment: Western blot analysis, cleaved PARP1. Format: cell-based. The settings on record: H358 cells, 9 μM, 24 hr. On the procedure:
as §1, §2

Experiment [6] relates to H358 cells. In words: MTT assay cell viability. As to conditions: Homo sapiens, NCI-H358, 72 hr treatment. Format: cell-based. The protocol:
(§3) A549 and H358 cell lines were stored in liquid nitrogen. A549 and H358 cells were cultured by RPMI 1640 medium after recovery. RPMI 1640 medium supplemented with 10% fetal bovine serum and 100 units/mL penicillin and 100 μg/mL streptomycin. A549 and H358 cells were grown at 37° C. incubator with 5% CO2.
(§4) All compounds were dissolved in dimethyl sulfoxide (DMSO) and stored at −40° C. HCC78 cells were plated in 96-well micro-plate and plated 3000 cells/well. Then the 96-well micro-plate was put back in the incubator and overnight for cell adhesion. After cell adhesion, the medium was removed and each well was added with 100 μl drug-containing medium. There were three different concentrations for each drug and three duplicate wells for each concentration. Then cell adhesion was cultured overnight for 72 hr. After 72 hr, each well was added with 10 μl of MTT solution and the 96-well plate was put back in the incubator for 4 hr. Then 100 μl of the SDS solution (10% SDS and 0.1 mM HCL) was added to each well and incubated at 37° C. for 4 hr. Finally the absorbance of the plate was measured by an absorbance reader (Tecan, Morrisvill, N.C., USA).
(§5) FIG. 3B is a graph 302 showing the effect of compound C620-0696 on the cell viability of A549 cells. A549 cells were treated by different concentrations of compound C620-0696, i.e. 3, 6, 9 and 12 μM for 72 hr. […]
In general terms: Tetrazolium assays rely on reduction of a dye to a coloured formazan, in cell work by metabolically active cells.

Experiment [7] relates to A549 cells. Nature of the experiment: MTT assay cell viability. Type of experiment: cell-based. The settings on record: Homo sapiens, 72 hr treatment. On the procedure:
as §3, §4, §5

In experiment [8] the test system is A549 cells. Nature of the experiment: Wound healing assay. Type of experiment: cell-based. As to conditions: 24 and 48 hours postinjury, versus control cells. On the procedure:
A549 cells were seeded onto 6 well plates. When the cell confluence reached about >90% and scratch wounds were made by scraping the cell layer across each plate using the tip of 200 μl pipette. Wounded cultures were incubated in medium for 48 hr, and then visualized by Olympus inverted microscopy to assess cell migration ability.
To evaluate the effect of C620-0696 on cell migration and cellular processes in NSCLC, the wound healing assay was employed to assess the directional cell motility in A549 cells.

By Kd is commonly meant the equilibrium constant for the complex coming apart. The term IC50 denotes the midpoint of a concentration-inhibition curve. Lower therefore signals greater potency in that assay. Take `CN(C)CCCNc1cc(NCc2ccco2)c2noc3c2c1C(=O)c1ccccc1-3` [compound C620-0696]: the colony formation result in experiment [1] is listed as “significant loss of colony formation”. Moreover, the “expression of cyclin D1” value in experiment [2] is given as “reduced the expression of cyclin D1”. Further, the Koff in experiment [3] (1:1 binding model) is reported as 1.70×10^−2 S^−1. For the same molecule, the equilibrium dissociation constant (Kd) in experiment [3] (3.125-200 μM, steady-state analysis, read-out: binding affinity KD) is 35.5 µM. For the same molecule, the “expression of c-MYC” value in experiment [4] is given as “suppressed the expression”. Also, the “levels of cleaved PARP1” value in experiment [5] is “significantly increased”. In addition, the IC50 in experiment [6] is 6.72 µM; in experiment [7] it was 11.2 µM. In experiment [8], the “cell migration (wound healing)” value is “migrated more slowly”.
